Measurements from patent US10301261B2, “Substituted indoles as modulators of ROR-gamma” (Vitae Pharmaceuticals, LLC, priority 2015, dated 2019).

What was measured:
[1] = molecular target: recombinant RORγ Ligand Binding Domain (LBD) protein (Homo sapiens (Human), UniProt P51449); assay: Radio-Ligand RORγ Binding Assay (Assay 1); settings: radio-ligand 25-hydroxy [26,27-3H]-cholesterol competition
Procedure: Radio-Ligand RORγ Binding Assay (Assay 1)
Compounds described herein were tested for ability to bind to RORγ in a cell-free competition assay with commercially available radio-ligand (RL), 25-hydroxy [26,27-^3H]-cholesterol (PerkinElmer, Cat. # NET674250UC), for a ligand binding site on a recombinant RORγ Ligand Binding Domain (LBD) protein expressed as a 6×His-Glutathione-S-Transferase (GST) fusion. […] The plate was shaken at 700 rpm for 20 min and incubated for 10 min at rt, after which 40 μL of poly-Lys YSi SPA beads (PerkinElmer, Cat. # RPNQ0010) were added to achieve 50 μg of the beads per well. The plate was incubated on an orbital shaker for 20 min and then for 10 min without agitation at rt. SPA signal for tritium beta radiation was registered on PerkinElmer Microbeta plate reader. […] The percent inhibition vs. concentration data were fit into a four-parameter model, and IC50 values were calculated from the fit as the concentrations corresponding to the inflection points on the dose-response curves. […]

[2] = molecular target: full-length RORγt in Jurkat cells (Homo sapiens (Human), UniProt P51449); assay: RORγt 5×RORE Assay in Jurkat Cells (Assay 2); assay type: cell-based; settings: RORγt 5×RORE Nanoluc reporter
Procedure: [formula] RORγt 5×RORE Assay in Jurkat Cells (Assay 2)
Compounds described herein were tested for RORγ inverse agonist activity in a cell-based, transcriptional activity assay. […] (Promega, Cat. # N1021) using KpnI and HindIII restriction sites. […] Tested compounds were added to the cells in the same media (final concentration of DMSO was 0.1% (v/v)), and the plates were incubated at 37° C./5% CO2 for 16-18 hrs. Luciferase activity in the conditioned supernatants was determined with NanoGlo® assay reagents (Promega, Cat.# N1130).

Sequence of recombinant RORγ Ligand Binding Domain (LBD) protein (P51449 269-508): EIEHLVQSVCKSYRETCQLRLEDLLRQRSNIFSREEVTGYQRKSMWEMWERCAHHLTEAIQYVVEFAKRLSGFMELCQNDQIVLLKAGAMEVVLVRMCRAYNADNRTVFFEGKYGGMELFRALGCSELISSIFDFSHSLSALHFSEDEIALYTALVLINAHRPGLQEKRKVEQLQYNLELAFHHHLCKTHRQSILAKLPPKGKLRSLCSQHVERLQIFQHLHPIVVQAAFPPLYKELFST
Sequence of full-length RORγt in Jurkat cells (P51449 other isoform, or with tags, fused parts or gaps): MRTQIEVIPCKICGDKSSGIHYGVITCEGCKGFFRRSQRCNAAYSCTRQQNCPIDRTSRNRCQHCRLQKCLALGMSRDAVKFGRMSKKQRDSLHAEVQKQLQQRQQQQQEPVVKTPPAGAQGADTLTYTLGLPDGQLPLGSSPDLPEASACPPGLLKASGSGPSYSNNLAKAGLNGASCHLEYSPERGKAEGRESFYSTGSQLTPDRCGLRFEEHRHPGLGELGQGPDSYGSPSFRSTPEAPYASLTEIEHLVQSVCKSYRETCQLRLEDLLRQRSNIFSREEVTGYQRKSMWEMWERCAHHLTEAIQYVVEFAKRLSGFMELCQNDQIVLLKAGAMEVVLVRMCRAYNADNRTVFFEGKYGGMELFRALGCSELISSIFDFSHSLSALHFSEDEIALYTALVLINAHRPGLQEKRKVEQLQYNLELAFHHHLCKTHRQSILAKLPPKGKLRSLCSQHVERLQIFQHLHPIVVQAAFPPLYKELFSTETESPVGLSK

Compound	Ki [1] [nM]	IC50 [2] [nM]
1-ethyl-N-(4-(ethylsulfonyl)benzyl)-2-(((1s,4s)-4-(trifluoromethyl)cyclohexyl)methyl)-1H-indole-5-carboxamide [IN-17.2]	< 100	> 1000
1-ethyl-N-((5-(ethylsulfonyl)pyridin-2-yl)methyl)-2-(((1s,4s)-4-(trifluoromethyl)cyclohexyl)methyl)-1H-indole-5-carboxamide [IN-15.2]	< 100	> 1000
1-ethyl-N-((R)-1-(4-(ethylsulfonyl)phenyl)-2-hydroxyethyl)-2-(((1s,4S)-4-(trifluoromethyl)cyclohexyl)methyl)-1H-indole-5-carboxamide [IN-16.2]	< 100	> 1000
CCS(=O)(=O)c1ccc(CNC(=O)c2cnc3c(c2)nc(C[C@H]2CC[C@H](C(F)(F)F)CC2)n3C2CC2)cc1 [AB-1.1, 3-cyclopropyl-N-(4-(ethylsulfonyl)benzyl)-2-(((1r,4r)-4-(trifluoromethyl)cyclohexyl)methyl)-3H-imidazo[4,5-b]pyridine-6-carboxamide]	< 100	< 100
CCS(=O)(=O)c1ccc(CNC(=O)c2cnc3c(c2)nc(C[C@H]2CC[C@@H](C(F)(F)F)CC2)n3C2CC2)cc1 [AB-1.2, 3-cyclopropyl-N-(4-(ethylsulfonyl)benzyl)-2-(((1s,4s)-4-(trifluoromethyl)cyclohexyl)methyl)-3H-imidazo[4,5-b]pyridine-6-carboxamide]	< 100	> 1000
CS(=O)(=O)c1ccc(CNC(=O)c2cnc3c(c2)nc(Cc2ccc(C(F)(F)F)cc2)n3C2CC2)cc1 [AB-2, 3-cyclopropyl-N-(4-(methylsulfonyl)benzyl)-2-(4-(trifluoromethyl)benzyl)-3H-imidazo[4,5-b]pyridine-6-carboxamide]	100 to 1000	–
CCS(=O)(=O)c1ccc(CNC(=O)c2cnc3c(c2)nc(Cc2ccc(C(F)(F)F)cc2)n3C2CC2)cc1 [AB-3, 3-cyclopropyl-N-(4-(ethylsulfonyl)benzyl)-2-(4-(trifluoromethyl)benzyl)-3H-imidazo[4,5-b]pyridine-6-carboxamide]	< 100	< 100
CCS(=O)(=O)c1ccc(CNC(=O)c2cnc3c(c2)cc(C[C@H]2CC[C@H](C(F)(F)F)CC2)n3C2CC2)cc1 [AI-1, 1-cyclopropyl-N-(4-(ethylsulfonyl)benzyl)-2-(((1r,4r)-4-(trifluoromethyl)cyclohexyl)methyl)-1H-pyrrolo[2,3-b]pyridine-5-carboxamide]	< 100	< 100
C=C(C)Cn1c(Cc2ccc(C(F)(F)F)cc2)cc2cc(C(=O)NCc3ccc(S(=O)(=O)CC)cc3)cnc21 [AI-3, N-(4-(ethylsulfonyl)benzyl)-1-(2-methylallyl)-2-(4-(trifluoromethyl)benzyl)-1H-pyrrolo[2,3-b]pyridine-5-carboxamide]	< 100	–
CCS(=O)(=O)c1ccc([C@H](CO)NC(=O)c2ccc3c(c2)nc(O[C@H]2CC[C@H](C(F)(F)F)CC2)n3C2CC2)cc1 [BE-1, 1-cyclopropyl-N-((R)-1-(4-(ethylsulfonyl)phenyl)-2-hydroxyethyl)-2-(((1r,4R)-4-(trifluoromethyl)cyclohexyl)oxy)-1H-benzo[d]imidazole-5-carboxamide]	< 100	< 100
CCn1c(O[C@H]2CC[C@H](C(F)(F)F)CC2)nc2cc(C(=O)NCc3ccc(S(=O)(=O)CC)cc3)ccc21 [BE-2, 1-ethyl-N-(4-(ethylsulfonyl)benzyl)-2-(((1r,4r)-4-(trifluoromethyl)cyclohexyl)oxy)-1H-benzo[d]imidazole-5-carboxamide]	< 100	< 100
CCS(=O)(=O)c1ccc(CNC(=O)c2ccc3c(c2)nc(O[C@H]2CC[C@H](C(F)(F)F)CC2)n3CC(C)C)cc1 [BE-4.1, N-(4-(ethylsulfonyl)benzyl)-1-isobutyl-2-(((1r,4r)-4-(trifluoromethyl)cyclohexyl)oxy)-1H-benzo[d]imidazole-5-carboxamide]	< 100	100 to 1000
CCn1c(Oc2ccc(C(F)(F)F)cc2)nc2cc(C(=O)N[C@@H](CN(C)C)c3ccc(S(=O)(=O)CC)cc3)ccc21 [BE-10, (R)-N-(2-(dimethylamino)-1-(4-(ethylsulfonyl)phenyl)ethyl)-1-ethyl-2-(4-(trifluoromethyl)phenoxy)-1H-benzo[d]imidazole-5-carboxamide]	100 to 1000	–
CCS(=O)(=O)c1ccc([C@@H](CO)NC(=O)c2ccc3c(c2)nc(C[C@H]2CC[C@H](C(F)(F)F)CC2)n3C2CC2)nc1 [BE-29, 1-cyclopropyl-N-((S)-1-(5-(ethylsulfonyl)pyridin-2-yl)-2-hydroxyethyl)-2-(((1r,4S)-4-(trifluoromethyl)cyclohexyl)methyl)-1H-benzo[d]imidazole-5-carboxamide]	> 1000	–
CCS(=O)(=O)c1ccc(CNC(=O)c2ccc3c(c2)nc(Cc2ccc(C(F)(F)F)cc2)n3C2CCC2)cc1 [BE-38, 1-cyclobutyl-N-(4-(ethylsulfonyl)benzyl)-2-(4-(trifluoromethyl)benzyl)-1H-benzo[d]imidazole-5-carboxamide]	< 100	–
CCS(=O)(=O)c1ccc(CNC(=O)c2ccc3c(c2)nc(Cc2ccc(C(F)(F)F)cc2)n3CC(C)C)nc1 [BE-43, N-((5-(ethylsulfonyl)pyridin-2-yl)methyl)-1-isobutyl-2-(4-(trifluoromethyl)benzyl)-1H-benzo[d]imidazole-5-carboxamide]	< 100	–

Continued, in another order:

Ki [1] [nM]	Compound	IC50 [2] [nM]
100 to 1000	CCn1c(CC2CCC(C(F)(F)F)OC2)nc2cc(C(=O)NCc3ccc(S(=O)(=O)CC)cc3)ccc21 (single isomer, unassigned) [BE-56.1, 1-ethyl-N-(4-(ethylsulfonyl)benzyl)-2-((6-(trifluoromethyl)tetrahydro-2H-pyran-3-yl)methyl)-1H-benzo[d]imidazole-5-carboxamide]	–
100 to 1000	CCn1c(CC2CCC(C(F)(F)F)OC2)nc2cc(C(=O)NCc3ccc(S(=O)(=O)CC)cc3)ccc21 (single isomer, unassigned) [BE-56.2, 1-ethyl-N-(4-(ethylsulfonyl)benzyl)-2-((6-(trifluoromethyl)tetrahydro-2H-pyran-3-yl)methyl)-1H-benzo[d]imidazole-5-carboxamide]	–
100 to 1000	CCn1c(CC2CCC(C(F)(F)F)OC2)nc2cc(C(=O)NCc3ccc(S(=O)(=O)CC)cc3)ccc21 (single isomer, unassigned) [BE-56.3, 1-ethyl-N-(4-(ethylsulfonyl)benzyl)-2-((6-(trifluoromethyl)tetrahydro-2H-pyran-3-yl)methyl)-1H-benzo[d]imidazole-5-carboxamide]	–
< 100	CCS(=O)(=O)c1ccc([C@H](CO)NC(=O)c2ccc3c(c2)nc(COC2CCC(C(F)(F)F)CC2)n3C2CC2)cc1 (single isomer, unassigned) [BE-71.1]	< 100
< 100	CCS(=O)(=O)c1ccc([C@H](CO)NC(=O)c2ccc3c(c2)nc(CO[C@H]2CC[C@H](C(F)(F)F)CC2)n3C2CC2)cc1 (single isomer, unassigned) [BE-71.2]	< 100
100 to 1000	CCS(=O)(=O)c1ccc(CNC(=O)c2cc(Br)c3c(c2)nc(C[C@H]2CC[C@H](C(F)(F)F)CC2)n3C)cc1 [BE-58, 7-bromo-N-(4-(ethylsulfonyl)benzyl)-1-methyl-2-(((1r,4r)-4-(trifluoromethyl)cyclohexyl)methyl)-1H-benzo[d]imidazole-5-carboxamide]	–
100 to 1000	CCS(=O)(=O)c1ccc(CNC(=O)c2cc(Br)c3c(c2)nc(Cc2ccc(C(F)(F)F)cc2)n3C)cc1 [BE-59, 7-bromo-N-(4-(ethylsulfonyl)benzyl)-1-methyl-2-(4-(trifluoromethyl)benzyl)-1H-benzo[d]imidazole-5-carboxamide]	–
< 100	CCS(=O)(=O)c1ccc(CNC(=O)c2ccc3c(c2)nc(C(=O)C2CCC(C(F)(F)F)CC2)n3C2CC2)cc1 (stereo not shown) [BE-64, 1-cyclopropyl-N-(4-(ethylsulfonyl)benzyl)-2-(4-(trifluoromethyl)cyclohexane-1-carbonyl)-1H-benzo[d]imidazole-5-carboxamide]	–
< 100	CCS(=O)(=O)c1ccc(CC(=O)Nc2ccc3c(c2)nc(Cc2ccc(C(F)(F)F)cc2)n3CC(C)C)cc1 [BE-68, 2-(4-(ethylsulfonyl)phenyl)-N-(1-isobutyl-2-(4-(trifluoromethyl)benzyl)-1H-benzo[d]imidazol-5-yl)acetamide]	–
< 100	CCn1c(Cc2ccc(OC(F)F)cc2)cc2cc(C(=O)N[C@@H](CO)c3ccc(S(=O)(=O)CC)cn3)ccc21 [IN-6, (R)-2-(4-(difluoromethoxy)benzyl)-1-ethyl-N-(1-(5-(ethylsulfonyl)pyridin-2-yl)-2-hydroxyethyl)-1H-indole-5-carboxamide]	–
< 100	CCn1c(Cc2cccc(OC(F)F)c2)cc2cc(C(=O)N[C@@H](CO)c3ccc(S(=O)(=O)CC)cn3)ccc21 [IN-7, (R)-2-(3-(difluoromethoxy)benzyl)-1-ethyl-N-(1-(5-(ethylsulfonyl)pyridin-2-yl)-2-hydroxyethyl)-1H-indole-5-carboxamide]	–
